PubChem BioAssay AID651650 (Sanford-Burnham Center for Chemical Genomics, 2012)
Calls of active or inactive are those of the source.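 How the source made its calls: active means mean IC50 below 20 µM in each of the two panels, so potent in both; inactive means the rest.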

Target: Neuropilin-1 (Homo sapiens) (UniProt O14786)
Assay: NRP-1 b1b2 CendR peptide binding inhibitors, dose response, biochemical, FP and AlphaScreen panel (AID 651650)
Settings: NRP-1 b1b2 / RPARPAR peptide binding, FP or AlphaScreen
[1] = AlphaScreen, run 1, individual panel run IC50
[2] = FP, run 1, individual panel run IC50
[3] = FP, run 2, individual panel run IC50

Chain of Neuropilin-1 (Homo sapiens) (O14786 whole entry, looked up): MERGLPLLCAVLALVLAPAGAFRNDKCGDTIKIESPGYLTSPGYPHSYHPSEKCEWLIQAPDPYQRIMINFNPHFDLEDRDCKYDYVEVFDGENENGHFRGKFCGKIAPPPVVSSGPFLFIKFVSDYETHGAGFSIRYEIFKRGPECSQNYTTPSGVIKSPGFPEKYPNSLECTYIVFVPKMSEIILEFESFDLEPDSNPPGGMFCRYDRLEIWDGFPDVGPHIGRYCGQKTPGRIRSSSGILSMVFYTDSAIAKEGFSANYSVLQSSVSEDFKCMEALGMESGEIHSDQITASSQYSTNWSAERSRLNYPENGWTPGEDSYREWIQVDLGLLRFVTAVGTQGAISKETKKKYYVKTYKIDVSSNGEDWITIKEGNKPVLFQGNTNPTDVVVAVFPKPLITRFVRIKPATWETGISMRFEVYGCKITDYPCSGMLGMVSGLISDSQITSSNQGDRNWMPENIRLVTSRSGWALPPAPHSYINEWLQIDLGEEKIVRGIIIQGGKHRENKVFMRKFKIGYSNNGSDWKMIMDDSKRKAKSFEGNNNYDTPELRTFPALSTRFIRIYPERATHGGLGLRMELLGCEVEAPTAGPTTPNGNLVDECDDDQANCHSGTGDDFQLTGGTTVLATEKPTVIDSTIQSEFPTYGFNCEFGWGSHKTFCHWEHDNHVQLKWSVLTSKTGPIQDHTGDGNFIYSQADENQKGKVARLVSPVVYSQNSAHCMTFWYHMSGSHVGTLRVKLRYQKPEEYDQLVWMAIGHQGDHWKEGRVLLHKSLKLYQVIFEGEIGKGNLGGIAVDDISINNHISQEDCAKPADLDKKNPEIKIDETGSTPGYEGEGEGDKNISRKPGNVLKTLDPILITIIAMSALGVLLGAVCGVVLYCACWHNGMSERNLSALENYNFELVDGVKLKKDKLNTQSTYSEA

Row | Compound | IC50 (AlphaScreen, mean of runs) | IC50 [1] | IC50 (FP, mean of runs) | IC50 [2] | IC50 [3]
1 | O=C(COC(=O)C1CC(=O)N(Cc2ccccc2)C1)Nc1ccccc1F (stereo not given) | inactive | 44.6 µM | > 95 µM (inactive) | > 95 µM | > 95 µM
2 | CSc1cccc(CN2CCN(Cc3ccccc3)C(CCO)C2)c1 (stereo not given) | > 100 µM (inactive) | > 100 µM | > 95 µM (inactive) | > 95 µM | > 95 µM
3 | CCOc1ccc(S(=O)(=O)NNC(=O)c2cc3ccccc3o2)cc1 | > 100 µM (inactive) | > 100 µM | > 95 µM (inactive) | > 95 µM | > 95 µM
4 | CCOC(=O)CNc1ccc2c(c1)OCO2 | inactive | 27.8 µM | inactive | > 95 µM | 38.7 µM
5 | COc1ccc([C@H]2/C=C\CN(C(=O)C3CC3)[C@@H](C)C(=O)N2Cc2ccc(F)cc2)cc1 | > 100 µM (inactive) | > 100 µM | > 95 µM (inactive) | > 95 µM | > 95 µM
6 | CN(C(=O)COC(=O)c1nc(-c2ccccc2)n(-c2ccccc2)n1)C1CCS(=O)(=O)C1 (stereo not given) | > 100 µM (inactive) | > 100 µM | > 95 µM (inactive) | > 95 µM | > 95 µM
7 | CCCc1c(O)c2ccccc2[nH]c1=O | > 100 µM (inactive) | > 100 µM | > 95 µM (inactive) | > 95 µM | > 95 µM
8 | O=C(COC(=O)c1ccccn1)c1ccc([N+](=O)[O-])cc1 | > 100 µM (inactive) | > 100 µM | > 95 µM (inactive) | > 95 µM | > 95 µM
9 | COc1ccccc1N1CCN(C(=O)C2c3ccccc3Oc3ccccc32)CC1 | > 100 µM (inactive) | > 100 µM | > 95 µM (inactive) | > 95 µM | > 95 µM
10 | CCOc1cc(C(=O)NCCN2CCOCC2)cc(OCC)c1OCC | > 100 µM (inactive) | > 100 µM | > 95 µM (inactive) | > 95 µM | > 95 µM
11 | Cc1ccc(/C=N/Nc2nc3ccccc3[nH]2)s1 | > 100 µM (inactive) | > 100 µM | > 95 µM (inactive) | > 95 µM | > 95 µM
12 | CC1(C)CN=C(Nc2ccc(F)c(Cl)c2)S1 | 18.9 µM | 18.9 µM | > 95 µM (inactive) | > 95 µM | > 95 µM
13 | CC(=O)C(C(c1ccccc1)N1CCCc2ccccc21)N1CCOCC1 (stereo not given) | inactive | 72.2 µM | > 95 µM (inactive) | > 95 µM | > 95 µM
14 | COC(=O)CCCC1=CC2=CC(=O)C(C)(OC(=O)c3cccs3)C(=O)C2=CN1CCCOC(C)C (stereo not given) | 5.63 µM | 5.63 µM | > 95 µM (inactive) | > 95 µM | > 95 µM
15 | O=C(Nc1ccc(N2CCOCC2)cc1)c1cc(-n2cnnc2)ccc1Cl | > 100 µM (inactive) | > 100 µM | > 95 µM (inactive) | > 95 µM | > 95 µM
16 | CN(C)CCn1c(=O)n(-c2ccc(F)cc2)c(=O)c2c3c(sc21)CCCCC3 | inactive | 44.2 µM | > 95 µM (inactive) | > 95 µM | > 95 µM
17 | Cc1ccccc1NC(=O)c1cccc(NC(=O)CCC(=O)O)c1 | > 100 µM (inactive) | > 100 µM | > 95 µM (inactive) | > 95 µM | > 95 µM
18 | COc1ccccc1C(=O)NC(=O)CSc1nncn1C | > 100 µM (inactive) | > 100 µM | > 95 µM (inactive) | > 95 µM | > 95 µM
19 | CCN(CC)C(=O)c1cccc(-c2csc(C(NC(C)=O)c3cccc(OC)c3)n2)c1 (stereo not given) | > 100 µM (inactive) | > 100 µM | > 95 µM (inactive) | > 95 µM | > 95 µM

Row | Compound | IC50 (AlphaScreen, mean of runs) | IC50 [1] | IC50 (FP, mean of runs) | IC50 [2] | IC50 [3]
20 | N=C1C(=O)OCC1c1cc(Cl)ccc1NC(=O)Nc1ccccc1 (stereo not given) | inactive | 90.5 µM | > 95 µM (inactive) | > 95 µM | > 95 µM
21 | Nc1ncnc2[nH]c(=S)[nH]c12 | > 100 µM (inactive) | > 100 µM | > 95 µM (inactive) | > 95 µM | > 95 µM
22 | c1ccc2c(CNc3ccc(CNc4ncn[nH]4)cc3)cccc2c1 | > 100 µM (inactive) | > 100 µM | > 95 µM (inactive) | > 95 µM | > 95 µM
23 | CC(C)(C)C(=O)COC(=O)c1cc(-c2ccncc2)nc2ccccc12 | > 100 µM (inactive) | > 100 µM | inactive | > 95 µM | 40.5 µM
24 | CC(=O)Nc1ccc(NC(=O)C2CC(=O)N=C(N)S2)cc1 (stereo not given) | > 100 µM (inactive) | > 100 µM | > 95 µM (inactive) | > 95 µM | > 95 µM
25 | COCc1cccc(-c2csc(C(C)(O)c3ccccc3)n2)c1 (stereo not given) | > 100 µM (inactive) | > 100 µM | > 95 µM (inactive) | > 95 µM | > 95 µM
26 | O=c1oc(Nc2ccccc2F)nc2ccccc12 | > 100 µM (inactive) | > 100 µM | > 95 µM (inactive) | > 95 µM | > 95 µM
27 | OCCCc1n[nH]c(=S)n1-c1ccccc1 | > 100 µM (inactive) | > 100 µM | > 95 µM (inactive) | > 95 µM | > 95 µM
28 | CC1(c2ccccc2)CC(C)(C)n2c(O)c(C3=NC(=S)NC3=O)c3cccc1c32 (stereo not given) | > 100 µM (inactive) | > 100 µM | > 95 µM (inactive) | > 95 µM | > 95 µM
29 | COc1ccc(OCC(=O)O/N=C(\N)Cc2ccc(Cl)cc2Cl)cc1 | inactive | 55.3 µM | > 95 µM (inactive) | > 95 µM | > 95 µM
30 | CCN(CC(=O)NCc1cccs1)S(=O)(=O)c1ccc(C(C)C)cc1 | > 100 µM (inactive) | > 100 µM | > 95 µM (inactive) | > 95 µM | > 95 µM
31 | COCCNC(=S)N(CCc1c(C)[nH]c2ccc(F)cc12)Cc1cccs1 | > 100 µM (inactive) | > 100 µM | > 95 µM (inactive) | > 95 µM | > 95 µM
32 | O=C(c1ccccn1)N1CCN(S(=O)(=O)c2ccccc2)CC1 | inactive | 27.8 µM | > 95 µM (inactive) | > 95 µM | > 95 µM
33 | CCCCOC(=O)c1ccc(NS(=O)(=O)c2cc(-c3nnnn3CC)ccc2OC)cc1 | > 100 µM (inactive) | > 100 µM | > 95 µM (inactive) | > 95 µM | > 95 µM
34 | Cc1cnc(C(=O)OCC(=O)Nc2sc3c(c2C#N)CCC3)cn1 | > 100 µM (inactive) | > 100 µM | > 95 µM (inactive) | > 95 µM | > 95 µM
35 | CC1(C(=O)NCc2cccc3ccccc23)CCN1Cc1cccc2c1OCO2 (stereo not given) | > 100 µM (inactive) | > 100 µM | > 95 µM (inactive) | > 95 µM | > 95 µM
36 | O=C1CCC/C=C\C[C@@H](CC(=O)N(CCO)Cc2ccccc2)C(=O)N2CCC[C@H]2CO1 | > 100 µM (inactive) | > 100 µM | > 95 µM (inactive) | > 95 µM | > 95 µM
37 | NC(=O)C1=C[C@H](c2ccc(Br)cc2)C[C@H](OCc2ccc(CO)cc2)O1 | > 100 µM (inactive) | > 100 µM | > 95 µM (inactive) | > 95 µM | > 95 µM
